Source: patent publication US20120165331A1, “Di/tri-aza-spiro-C9-C11alkanes” (priority 2010, published 2012)

Columns and labels:
human orexin 1 receptor [1] = biological target: T1, human orexin 1 receptor (Homo sapiens, UniProt O43613); experiment: Calcium accumulation in cells (FLIPR), antagonism of orexin A, human orexin 1 receptor; assay type: cell-based; details: calcium accumulation, antagonism of orexin A, Cheng-Prusoff corrected; read-out: FLIPR hOx1R Ki
T1 construct: expressed in transfected cells
T1 sequence (O43613 1-425): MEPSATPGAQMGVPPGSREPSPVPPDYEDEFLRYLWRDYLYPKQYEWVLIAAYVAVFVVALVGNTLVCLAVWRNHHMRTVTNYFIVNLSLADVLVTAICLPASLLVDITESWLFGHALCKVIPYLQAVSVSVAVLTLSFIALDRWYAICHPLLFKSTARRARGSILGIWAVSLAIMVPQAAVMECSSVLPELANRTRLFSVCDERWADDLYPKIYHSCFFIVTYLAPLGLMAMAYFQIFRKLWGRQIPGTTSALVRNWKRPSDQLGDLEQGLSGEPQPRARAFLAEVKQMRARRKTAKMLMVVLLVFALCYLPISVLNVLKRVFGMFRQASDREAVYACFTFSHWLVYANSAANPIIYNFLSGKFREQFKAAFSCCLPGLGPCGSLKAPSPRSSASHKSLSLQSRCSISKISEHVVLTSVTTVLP

human orexin 2 receptor [2] = biological target: T2, human orexin 2 receptor (Homo sapiens, UniProt O43614); experiment: Radioligand binding assay ([3H]-SB649868 competition), human orexin 2 receptor; details: radioligand [3H]-SB649868; read-out: Binding hOx2R Kd
T2 construct: expressed in transfected cells
T2 sequence (O43614 1-444): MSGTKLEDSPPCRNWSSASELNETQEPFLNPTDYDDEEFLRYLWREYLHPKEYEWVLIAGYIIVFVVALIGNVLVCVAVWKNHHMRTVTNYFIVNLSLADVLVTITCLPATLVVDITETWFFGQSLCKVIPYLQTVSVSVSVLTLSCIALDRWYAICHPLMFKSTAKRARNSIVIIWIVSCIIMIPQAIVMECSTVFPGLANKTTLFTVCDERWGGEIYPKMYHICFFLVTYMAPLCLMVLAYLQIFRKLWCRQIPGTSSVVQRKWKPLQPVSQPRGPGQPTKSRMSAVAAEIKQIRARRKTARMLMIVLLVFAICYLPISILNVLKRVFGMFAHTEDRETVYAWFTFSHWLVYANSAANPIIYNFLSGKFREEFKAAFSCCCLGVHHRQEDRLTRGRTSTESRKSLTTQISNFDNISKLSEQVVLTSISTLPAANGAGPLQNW
Description: (§1) Radioligand Binding Assay
(§2) For crude cell membrane preparations, cells (CHO, Chinese hamster ovary or HEK, human embryonic kidney) expressing human orexin 1 or human orexin 2 receptors, were washed with HEPES (10 mM, pH 7.5), scraped off the culture plates with the same buffer, and centrifuged at 4° C. for 5 min at 2500×g. The cell pellet was either stored at −80° C. or used directly. Before the experiments, cell membranes were re-suspended in binding assay buffer (10 mM HEPES, 0.5% (w/v) bovine serum albumin, pH 7.5) by homogenisation with a Polytron homogeniser at 50 Hz for 20 s. Cell membranes were also used as made available by commercial providers.
(§3) Bound radioactivity was measured, and data were analysed with the program XLFIT or Graphpad Prism. Protein concentration was determined according to the Bradford/BioRad Protein Assay Kit.
(§4) In competition experiments, cell homogenates (150 μl) were incubated in assay buffer (10 mM HEPES, pH 7.5, 0.5% (w/v) bovine serum albumin, 5 mM MgCl2, 1 mMCaCl2, and tween 0.05%) for 1 h at room temperature with about 1 nM of the radioligand [^3H]-SB649868, 66 Ci/mmole, 50 μl), and with various concentrations of compounds of the invention (50 μl) in triplicates; non-specific binding was determined in the presence of almorexant (10 μM). Reactions were terminated by vacuum filtration, 3 washes of ice cold wash buffer (Tris-HCl pH 7.4/10 mM, with NaCl 154 mM). Competition data is expressed in Table 1 as Kd [μM].

human orexin 2 receptor [3] = biological target: T2, human orexin 2 receptor; experiment: Calcium accumulation in cells (FLIPR), antagonism of orexin A, human orexin 2 receptor; assay type: cell-based; details: calcium accumulation, antagonism of orexin A, Cheng-Prusoff corrected; read-out: FLIPR hOx2R Ki
human orexin 1 receptor [4] = biological target: T1, human orexin 1 receptor; experiment: Radioligand binding assay ([3H]-SB649868 competition), human orexin 1 receptor; details: radioligand [3H]-SB649868; read-out: Binding hOx1R Kd
Description: as §1, §2, §3, §4

Compound `Cc1cc(C)nc(N2CCC3(CC2)NCCN(Cc2nn(C)cc2-c2cccc(OCC4CC4)c2)C3=O)n1` [Example 1.52, 4-((4-(3-(Cyclo-propylmethoxy)phenyl)-1-methyl-1H-pyrazol-3-yl)methyl)-9-(4,6-dimethylpyrimidin-2-yl)-1,4,9-triazaspiro[5.5] undecan-5-one] has a Ki (human orexin 1 receptor [1]) of 286 nM, a Kd (human orexin 2 receptor [2]) of 50 nM and a Ki (human orexin 2 receptor [3]) of 2.8 nM. For the same compound, the Kd (human orexin 1 receptor [4]) was 436 nM.
`Cc1cc(C)nc(N2CCC3(CC2)NCCN(Cc2nn(C)cc2-c2cccc(OCC(C)C)c2)C3=O)n1` [Example 1.53, 9-(4,6-Dimethyl-pyrimidin-2-yl)-4-((4-(3-isobutoxyphenyl)-1-methyl-1H-pyrazol-3-yl)methyl)-1,4,9-triazaspiro[5.5] undecan-5-one] showed a Ki (human orexin 1 receptor [1]) of 331 nM, a Kd (human orexin 2 receptor [2]) of 45 nM and a Ki (human orexin 2 receptor [3]) of 7 nM. For the same compound, the Kd (human orexin 1 receptor [4]) was 319 nM.
In the case of `COc1ccc2[nH]nc(CN3CCNC4(CCN(c5nc(C)cc(C)n5)CC4)C3=O)c2c1` [Example 1.56, 9-(4,6-Dimethyl-pyrimidin-2-yl)-4-((5-methoxy-1H-indazol-3-yl)methyl)-1,4,9-triazaspiro[5.5] undecan-5-one], the Ki (human orexin 1 receptor [1]) is reported as 594 nM, the Kd (human orexin 2 receptor [2]) is reported as 11 nM and the Ki (human orexin 2 receptor [3]) is reported as 2.7 nM. For the same compound, the Kd (human orexin 1 receptor [4]) was 492 nM.
For `Cc1cc(C)nc(N2CCC3(CC2)NCCN(Cc2nn(C)cc2-c2cccc(OC4CC4)c2)C3=O)n1` [Example 1.62, 4-((4-(3-Cyclo-propoxyphenyl)-1-methyl-1H-pyrazol-3-yl)methyl)-9-(4,6-dimethyl-pyrimidin-2-yl)-1,4,9-triazaspiro[5.5] undecan-5-one], the Ki (human orexin 1 receptor [1]) was 163 nM, the Kd (human orexin 2 receptor [2]) was 8 nM and the Ki (human orexin 2 receptor [3]) was 1 nM. The Kd (human orexin 1 receptor [4]) was 142 nM.
With `COc1cc(C)nc(N2CCC3(CC2)NCCN(Cc2n[nH]c4ccccc24)C3=O)n1` [Example 1.65, 4-((1H-indazol-3-yl)methyl)-9-(4-methoxy-6-methyl-pyrimidin-2-yl)-1,4,9-triazaspiro[5.5] undecan-5-one] the Ki (human orexin 1 receptor [1]) was 1580 nM, the Kd (human orexin 2 receptor [2]) was 58 nM and the Ki (human orexin 2 receptor [3]) was 21 nM. For the same compound, the Kd (human orexin 1 receptor [4]) was 1160 nM.
`CCc1cccc(-c2cn(C)nc2CN2CCNC3(CCN(c4nc(C)cc(C)n4)CC3)C2=O)c1` [Example 1.67, 9-(4,6-dimethyl-pyrimidin-2-yl)-4-((4-(3-ethyl-phenyl)-1-methyl-1H-pyrazol-3-yl)methyl)-1,4,9-triazaspiro[5.5] undecan-5-one] showed a Ki (human orexin 1 receptor [1]) of 1140 nM, a Kd (human orexin 2 receptor [2]) of 50 nM and a Ki (human orexin 2 receptor [3]) of 5 nM. For the same compound, the Kd (human orexin 1 receptor [4]) was 1770 nM.
In the case of `Cc1cc(C)nc(N2CCC3(CC2)NCCN(Cc2nn(C)cc2-c2cccc(C(C)C)c2)C3=O)n1` [Example 1.68, 9-(4,6-dimethyl-pyrimidin-2-yl)-4-((4-(3-isopropyl-phenyl)-1-methyl-1H-pyrazol-3-yl)methyl)-1,4,9-triazaspiro[5.5] undecan-5-one], the Ki (human orexin 1 receptor [1]) is reported as 945 nM, the Kd (human orexin 2 receptor [2]) is reported as 13 nM and the Ki (human orexin 2 receptor [3]) is reported as 4 nM. For the same compound, the Kd (human orexin 1 receptor [4]) was 1440 nM.
`CCC(=O)c1cccc(-c2cn(C)nc2CN2CCNC3(CCN(c4nc(C)cc(C)n4)CC3)C2=O)c1` [Example 1.70, 9-(4,6-dimethyl-pyrimidin-2-yl)-4-((1-methyl-4-(3-propionylphenyl)-1H-pyrazol-3-yl)methyl)-1,4,9-triazaspiro[5.5] undecan-5-one] was tested, and the Ki (human orexin 1 receptor [1]) was 856 nM, the Kd (human orexin 2 receptor [2]) was 21 nM and the Ki (human orexin 2 receptor [3]) was 2 nM. The Kd (human orexin 1 receptor [4]) was 465 nM.
`Cc1cc(C)nc(N2CCC3(CC2)NCCN(Cc2nn(C)cc2-c2cccc(C(F)F)c2)C3=O)n1` [Example 1.71, 4-((4-(3-(difluoromethyl)phenyl)-1-methyl-1H-pyrazol-3-yl)methyl)-9-(4,6-dimethylpyrimidin-2-yl)-1,4,9-triazaspiro[5.5] undecan-5-one] gave a Ki (human orexin 1 receptor [1]) of 2060 nM, a Kd (human orexin 2 receptor [2]) of 227 nM and a Ki (human orexin 2 receptor [3]) of 30 nM. For the same compound, the Kd (human orexin 1 receptor [4]) was 1700 nM.
`Cc1cc(C)nc(N2CCC3(CC2)NCCN(Cc2nn(C)cc2-c2cccc(OCCOC(C)C)c2)C3=O)n1` [Example 1.72, 9-(4,6-dimethyl-pyrimidin-2-yl)-4-((4-(3-(2-iso-propoxyethoxy)phenyl)-1-methyl-1H-pyrazol-3-yl)methyl)-1,4,9-triazaspiro[5.5] undecan-5-one] gave a Ki (human orexin 1 receptor [1]) of 1590 nM, a Kd (human orexin 2 receptor [2]) of 203 nM and a Ki (human orexin 2 receptor [3]) of 49 nM. For the same compound, the Kd (human orexin 1 receptor [4]) was 846 nM.
With `Cc1cc(C)nc(N2CCC3(CC2)NCCN(Cc2nn(C)cc2-c2cccc(N4CCOCC4)c2)C3=O)n1` [Example 1.73, 9-(4,6-dimethyl-pyrimidin-2-yl)-4-((1-methyl-4-(3-morpholinophenyl)-1H-pyrazol-3-yl)methyl)-1,4,9-triazaspiro[5.5] undecan-5-one] the Ki (human orexin 1 receptor [1]) was 862 nM, the Kd (human orexin 2 receptor [2]) was 163 nM and the Ki (human orexin 2 receptor [3]) was 20 nM. For the same compound, the Kd (human orexin 1 receptor [4]) was 1380 nM.
With `COc1cc(-c2nn(C)nc2CN2CCNC3(CCN(c4nc(C)cc(C)n4)CC3)C2=O)ccn1` [Example 1.74, 9-(4,6-dimethyl-pyrimidin-2-yl)-4-((5-(2-methoxy-pyridin-4-yl)-2-methyl-2H-1,2,3-triazol-4-yl)methyl)-1,4,9-triazaspiro[5.5] undecan-5-one] the Ki (human orexin 1 receptor [1]) was 4270 nM, the Kd (human orexin 2 receptor [2]) was 127 nM and the Ki (human orexin 2 receptor [3]) was 48 nM. It also gave a Kd (human orexin 1 receptor [4]) of 2500 nM.
For `Cc1cc(C)nc(N2CCC3(CC2)NCCN(Cc2nn(C)nc2-c2cccc(N4CCOCC4)c2)C3=O)n1` [Example 1.77], the Ki (human orexin 1 receptor [1]) was 2880 nM, the Kd (human orexin 2 receptor [2]) was 225 nM and the Ki (human orexin 2 receptor [3]) was 56 nM. For the same compound, the Kd (human orexin 1 receptor [4]) was 2840 nM.
In the case of `COCCOc1cccc(-c2nn(C)nc2CN2CCNC3(CCN(c4nc(C)cc(C)n4)CC3)C2=O)c1` [Example 1.78, 9-(4,6-dimethyl-pyrimidin-2-yl)-4-((5-(3-(2-methoxyethoxy)phenyl)-2-methyl-2H-1,2,3-triazol-4-yl)methyl)-1,4,9-triazaspiro[5.5] undecan-5-one], the Ki (human orexin 1 receptor [1]) is reported as 1870 nM, the Kd (human orexin 2 receptor [2]) is reported as 28 nM and the Ki (human orexin 2 receptor [3]) is reported as 9 nM. For the same compound, the Kd (human orexin 1 receptor [4]) was 709 nM.
With `Cc1cc(C)nc(N2CCC3(CC2)NCCN(Cc2nn(C)nc2-c2cccc(OC(C)C)c2)C3=O)n1` [Example 1.79, 9-(4,6-dimethyl-pyrimidin-2-yl)-4-((5-(3-isopropoxy-phenyl)-2-methyl-2H-1,2,3-triazol-4-yl)methyl)-1,4,9-triazaspiro[5.5] undecan-5-one] the Ki (human orexin 1 receptor [1]) was 166 nM, the Kd (human orexin 2 receptor [2]) was 22 nM and the Ki (human orexin 2 receptor [3]) was 3.7 nM. For the same compound, the Kd (human orexin 1 receptor [4]) was 535 nM.
`Cc1cc(C)nc(N2CCC3(CC2)NCCN(Cc2nn(C)nc2-c2ccc4c(c2)OCCO4)C3=O)n1` [Example 1.80, 4-((5-(2,3-dihydro-benzo[b][1,4]dioxin-6-yl)-2-methyl-2H-1,2,3-triazol-4-yl)methyl)-9-(4,6-dimethylpyrimidin-2-yl)-1,4,9-triazaspiro[5.5] undecan-5-one] showed a Ki (human orexin 1 receptor [1]) of 501 nM, a Kd (human orexin 2 receptor [2]) of 27 nM and a Ki (human orexin 2 receptor [3]) of 4.3 nM. For the same compound, the Kd (human orexin 1 receptor [4]) was 860 nM.
With `Cc1cc(C)nc(N2CCC3(CC2)OCCN(Cc2c[nH]c4ccccc24)C3=O)n1` [Example 2.1, 4-((1H-indol-3-yl)methyl)-9-(4,6-dimethylpyrimidin-2-yl)-1-oxa-4,9-diazaspiro[5.5]undecan-5-one] the Ki (human orexin 1 receptor [1]) was 1700 nM, the Kd (human orexin 2 receptor [2]) was 31 nM and the Ki (human orexin 2 receptor [3]) was 29 nM. For the same compound, the Kd (human orexin 1 receptor [4]) was 1320 nM.
Work on `Cc1cc(C)nc(N2CCC3(CC2)OCCN(Cc2n[nH]c4ccccc24)C3=O)n1` [Example 2.2, 9-(4,6-Dimethyl-pyrimidin-2-yl)-4-(1H-indazol-3-ylmethyl)-1-oxa-4,9-diaza-spiro[5.5]undecan-5-one] yielded a Ki (human orexin 1 receptor [1]) of 1800 nM, a Kd (human orexin 2 receptor [2]) of 71 nM and a Ki (human orexin 2 receptor [3]) of 55 nM. The Kd (human orexin 1 receptor [4]) was 1840 nM.
Compound `Cc1cc(C)nc(N2CCC3(CC2)OCCN(Cc2c[nH]c4ccc(F)cc24)C3=O)n1` [Example 2.6, 9-(4,6-Dimethylpyrimidin-2-yl)-4-((5-fluoro-1H-indol-3-yl)methyl)-1-oxa-4,9-diazaspiro[5.5]undecan-5-one] has a Ki (human orexin 1 receptor [1]) of 1060 nM, a Kd (human orexin 2 receptor [2]) of 26 nM and a Ki (human orexin 2 receptor [3]) of 13 nM. It also gave a Kd (human orexin 1 receptor [4]) of 1060 nM.
